For 15 compounds, IC50 results are on record in patent publication US11524960B2, “Heterobicyclic inhibitors of MAT2A and methods of use for treating cancer” (AGIOS PHARMACEUTICALS, INC., priority 2018, dated 2022).

Assay [1] relates to HCT116 MTAP+/+. The experiment in a line: Inhibition of cellular proliferation (Cell Titer Glo), HCT116 MTAP+/+. As to conditions: Homo sapiens, HCT-116, 96 h, 4 days, IC50 score, read-out: 4 Day Relative Growth Inhibition (MTAP +/+; Example 277). It counts as cell-based, human. The procedure:
(§1) Test compound impact on cancer cell growth was assessed by treating cancer cells with compound for 4 days and then measuring proliferation using an ATP-based cell proliferation readout (Cell Titer Glo, Promega Corporation).
(§2) In a typical assay an isogenic pair of HCT116 human colon carcinoma cell lines which vary only in MTAP deletion status (HCT116 MTAP+/+ and HCT116 MTAP−/−) were plated in 96-well dishes at appropriate cell density. Following 24 hours, cells were then treated with the candidate MAT2A inhibitor. Prior to addition to cells, the compound was first serially diluted in 100% DMSO, typically as a 3-fold serial dilution starting at 500× top dose with 10 dose points including DMSO only control. Compound was then transferred to a working stock plate in cell culture media by adding 5 μl of compound in DMSO to 495 μl of cell culture media. This working stock was then added to cells via a further 5-fold dilution, by adding 25 μl of working stock to 100 μl of cells in culture media. Following compound addition, cells were incubated at 37° C./5% C02 for 4 days.
(§3) To measure inhibition of cellular proliferation, cells were allowed to equilibrate to room temperature for 30 minutes, and were then treated with 125 μl of Cell Titer Glo reagent. The plate was then covered with aluminum foil and shaken for 15 minutes to ensure complete mixing and full cell lysis. Luminescent signal was then measured using a plate-based luminometer Veritas version 1.9.2 using ATP standard curve to confirm assay reproducibility from run to run. This luminescence measure was converted to a proliferation index by subtracting from each data point the ATP luminescence signal measured from a bank (no cells) well and dividing by the ATP luminescence signal measured in 0.2% DMSO control well adjusted for signal in blank well. Compound activity was then represented as a percentage change in proliferation relative to a within-plate DMSO control against log10 of compound concentration in molar (M) units.
A general note: ATP-based viability assays read luminescence as a measure of living cells.

The target of assay [2] is T1, MAT2A homodimer (Homo sapiens, UniProt P31153).
T1 construct: inferred from Ni sepharose purification and imidazole elution; made in house; host or cells: Sf9 insect cells, recombinant baculovirus (Bac to Bac, pFASTBAC1)
Put plainly: Biochemical assay: inhibition of MAT2A (phosphate release, PiColorLock Gold). As to conditions: MAT2A IC50 score; read-out: Enzyme Inhibition (Example 275). Put shortly: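 Baculovirus/Sf9-expressed, Ni-purified MAT2A at 4 µg/mL was preincubated with compound for 60 min at 25 °C in 50 mM Tris pH 8.0, 50 mM KCl, 15 mM MgCl2, 0.3 mM EDTA, 0.005% BSA. Substrate mix (500 μM ATP, 400 μM L-methionine) was added and the reaction ran 60 min at 25 °C. Phosphate released stoichiometrically with SAM was measured colorimetrically against a phosphate standard curve.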

Assay [3] concerns SAM in HCT116 human colon carcinoma cell line engineered to delete the MTAP gene (MTAP −/−). Put plainly: Cellular assay of target engagement (SAM) by LC-MS/MS. In kind it is cell-based. The conditions noted are these: Homo sapiens, HCT-116, 72 h, IC50 score, read-out: Cell 72 h SAM Inhibition (MTAP −/−; Example 276). The procedure: Measurement of MAT2A activity in cells was made by direct quantitation of the abundance of the product of its enzymatic activity, SAM. Cancer cells were treated with candidate MAT2A inhibitors for a suitable incubation period, and the cells were then lysed using a reagent which quenched any further enzyme activity. Soluble metabolites including SAM were collected and SAM itself was directly measured from the lysate using quantitative LC-MS/MS.
A typical assay was performed using an HCT116 human colon carcinoma cell line which was genetically engineered to delete the MTAP gene (commercially available from Horizon Discovery). This cell line was utilized because it was determined that loss of the MTAP gene predicts sensitivity to MAT2A inhibitors. Cells were plated in 96-well dishes at appropriate cell density. Following 24 hours, cells were then treated with the candidate MAT2A inhibitor. Prior to addition to cells, the compound was first serially diluted in 100% DMSO, typically as a 3-fold serial dilution starting at 500× top dose with 10 dose points including DMSO only control. Compound was then transferred to a working stock plate in cell culture media by adding 5 μl of compound in DMSO to 495 μl of cell culture media. This working stock was then added to cells via a further 5-fold dilution, by adding 25 μl of working stock to 100 μl of cells in culture media. Following compound addition, cells were incubated at 37° C./5% CO2 for 72 hrs.
To quantitate SAM levels following compound treatment, cells were gently washed once in Ammonium Carbonate buffer (75 mM at pH 7.4), placed on dry ice, and lysed with metabolite extraction buffer (80% cold methanol and 20% water (v/v) with acetic acid at 1 M final concentration with 200 ng/mL deuterated d3-SAM as internal control). Following centrifugation at 4° C. at 3,200 rpm for 30 minutes, the supernatant was collected and stored at −80° C. until analysis by Liquid Chromatography with tandem Mass Spectrometry (LC-MS/MS). LC-MS/MS analysis was performed using an API6500 Mass Spectrometer (Sciex, Framingham, Mass., USA) operating in positive ion spray mode and equipped with a Waters UPLC Acquity (Waters, Milford, Mass., USA) BEH Amide column. Multiple Reaction Monitoring data was acquired for SAM and the d3-SAM standard, using a mass transition pair at m/z 399.2→250.1 and 402.2→250.1, respectively. In a typical LC-MS/MS analysis, the initial flow rate was 0.5 ml/min of 25% mobile phase A (acetonitrile and water at 5:95 (v/v) with 1% formic acid and 10 mM ammonium acetate) and 75% mobile phase B (acetonitrile and water at 95:5 (v/v) with 1% formic acid and 10 mM ammonium acetate), 0.2-0.5 minutes with 75%-35% mobile phase B, 25%-65% mobile phase A, at 0.5 min 65% mobile phase A and 35% mobile phase B, 1.0-1.1 minutes with 35%-75% mobile phase B, 65%-25% mobile phase A, at 1.1 min 25% mobile phase A and 75% mobile phase B with a total run time of 1.5 minutes.

For assay [4], the system named is HCT116 MTAP−/−. The experiment in a line: Inhibition of cellular proliferation (Cell Titer Glo), HCT116 MTAP−/−. In kind it is cell-based, human. As to conditions: Homo sapiens, HCT-116, 96 h, 4 days, IC50 score, read-out: 4 Day Relative Growth Inhibition (MTAP −/−; Example 277). The procedure: as §1, §2, §3

T1 sequence (P31153 whole entry): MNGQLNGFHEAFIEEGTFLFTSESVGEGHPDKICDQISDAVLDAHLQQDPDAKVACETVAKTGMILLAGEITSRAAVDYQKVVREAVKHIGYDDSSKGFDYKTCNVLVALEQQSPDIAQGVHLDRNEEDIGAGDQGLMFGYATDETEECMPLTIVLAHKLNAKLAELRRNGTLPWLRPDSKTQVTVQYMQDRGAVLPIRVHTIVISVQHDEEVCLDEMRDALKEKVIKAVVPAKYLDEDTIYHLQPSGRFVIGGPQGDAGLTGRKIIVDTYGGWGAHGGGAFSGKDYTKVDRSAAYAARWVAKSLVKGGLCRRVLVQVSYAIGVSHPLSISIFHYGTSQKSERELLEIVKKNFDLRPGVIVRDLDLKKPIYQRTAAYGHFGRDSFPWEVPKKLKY

As for `CCOc1ccc2cn(-c3ccc4nn(C)cc4c3)c(=O)c(-c3ccc(C(F)F)nc3)c2n1` [Example 216, 8-(6-(difluoromethyl)pyridin-3-yl)-2-ethoxy-6-(2-methyl-2H-indazol-5-yl)-1,6-naphthyridin-7(6H)-one], the IC50 was 100 to 10000 nM in assay [1], < 100 nM in assay [2], < 100 nM in assay [3] and < 100 nM in assay [4].
In the case of `Cn1nnc2ccc(-n3cc4ccc(NCC(F)(F)F)nc4c(-c4ccc(Cl)cc4)c3=O)cc21` [Example 235, 8-(4-chlorophenyl)-6-(1-methyl-1H-benzo[d][1,2,3]triazol-6-yl)-2-(2,2,2-trifluoroethylamino)-1,6-naphthyridin-7(6H)-one], the IC50 is > 10000 nM in assay [1], < 100 nM in assay [2], < 100 nM in assay [3] and < 100 nM in assay [4].
`COc1ccc(-c2c(=O)n(-c3ccc4nn(C)cc4c3)cc3ncc(OCC(F)F)nc23)cc1` [Example 141-A]: the IC50 in assay [1] was 100 to 10000 nM; in assay [2], < 100 nM; in assay [3], < 100 nM; in assay [4] it was < 100 nM.
As to `Cn1cnc2ccc(-n3cc4ccc(OCC(F)(F)F)nc4c(-c4ccc(OC(F)(F)F)nc4)c3=O)cc21` [Example 112-A], the IC50 in assay [1] is 100 to 10000 nM; in assay [2], < 100 nM; in assay [3] it was < 100 nM; in assay [4] it was < 100 nM.
With `CCOc1ccc2cn(-c3ccc4ncccc4c3)c(=O)c(-c3ccc(Cl)cc3)c2n1` [Example 243, 8-(4-chlorophenyl)-2-ethoxy-6-(quinolin-6-yl)-1,6-naphthyridin-7(6H)-one], the IC50 is > 10000 nM in assay [1], < 100 nM in assay [2], < 100 nM in assay [3] and < 100 nM in assay [4].
As to `COc1ccc(-c2c(=O)n(-c3ccc4c(c3)CCO4)cc3cnc(NCC(F)(F)F)nc23)cc1` [Example 147, 6-(2,3-dihydrobenzofuran-5-yl)-8-(4-methoxyphenyl)-2-((2,2,2-trifluoroethyl)amino)pyrido[4,3-d]pyrimidin-7(6H)-one], the IC50 is > 10000 nM in assay [1], < 100 nM in assay [2], 100 to 1000 nM in assay [3] and 100 to 10000 nM in assay [4].
Turning to `COc1ccc(-c2c(=O)n(-c3ccc(OC)cc3)cc3cnc(NCC(F)(F)F)nc23)cc1` [Example 200, 6,8-bis(4-methoxyphenyl)-2-(2,2,2-trifluoroethylamino)pyrido[4,3-d]pyrimidin-7(6H)-one], the IC50 is 100 to 10000 nM in assay [1], < 100 nM in assay [2], 100 to 1000 nM in assay [3] and 100 to 10000 nM in assay [4].
Take `O=c1c(-c2ccc(Cl)cc2)c2nc(NCC(F)(F)F)ncc2cn1-c1ccc2ncn(C3CC3)c2c1` [Example 127, 8-(4-chlorophenyl)-6-(1-cyclopropyl-1H-benzo[d]imidazol-6-yl)-2-(2,2,2-trifluoroethylamino)pyrido[4,3-d]pyrimidin-7(6H)-one]: the IC50 is > 10000 nM in assay [1], < 100 nM in assay [2], < 100 nM in assay [3] and < 100 nM in assay [4].
Regarding `O=c1c(-c2ccc(OC(F)F)cc2)c2nc(NCC(F)(F)F)ncc2cn1-c1ccc2nccn2c1` [Example 157, 8-(4-(difluoromethoxy)phenyl)-6-(imidazo[1,2-a]pyridin-6-yl)-2-((2,2,2-trifluoroethyl)amino)pyrido[4,3-d]pyrimidin-7(6)-one], the IC50 was > 10000 nM in assay [1], < 100 nM in assay [2], < 100 nM in assay [3] and 100 to 10000 nM in assay [4].
On to `CCOc1ccc2cn(-c3ccc4nn(C)cc4c3)c(=O)c(-c3ccc(OC(F)F)nc3)c2n1` [Example 218, 8-(6-(difluoromethoxy)pyridin-3-yl)-2-ethoxy-6-(2-methyl-2H-indazol-5-yl)-1,6-naphthyridin-7(6H)-one], for which the IC50 was 100 to 10000 nM in assay [1], < 100 nM in assay [2], < 100 nM in assay [3] and < 100 nM in assay [4].
As for `CCOc1ccc2cn(-c3ccc4nn(C)cc4c3)c(=O)c(-c3ccc(Cl)cc3)c2n1` [Example 247, 8-(4-chlorophenyl)-2-ethoxy-6-(2-methyl-2H-indazol-5-yl)-1,6-naphthyridin-7(6H)-one], the IC50 in assay [1] was 100 to 10000 nM; in assay [2], < 100 nM; in assay [3], < 100 nM; in assay [4] it was < 100 nM.
For `Cc1c2cc(-n3cc4ccc(NCC(F)(F)F)nc4c(-c4ccc(Cl)cc4)c3=O)ccc2nn1C` [Example 237, 8-(4-chlorophenyl)-6-(2,3-dimethyl-2H-indazol-5-yl)-2-(2,2,2-trifluoroethylamino)-1,6-naphthyridin-7(6H)-one], the IC50 was > 10000 nM in assay [1], < 100 nM in assay [2], < 100 nM in assay [3] and < 100 nM in assay [4].
Turning to `CCOc1ccc2cn(-c3ccc4nn(C)cc4c3)c(=O)c(-c3ccc(C4CC4)nc3)c2n1` [Example 221, 8-(6-cyclopropylpyridin-3-yl)-2-ethoxy-6-(2-methyl-2H-indazol-5-yl)-1,6-naphthyridin-7(6H)-one], the IC50 in assay [1] is > 10000 nM; in assay [2], < 100 nM; in assay [3] it was < 100 nM; in assay [4], 100 to 10000 nM.
With `CCOc1ccc2cn(-c3ccc4nn(C)c(C)c4c3)c(=O)c(-c3ccc(Cl)cc3)c2n1` [Example 105-A], the IC50 in assay [1] was 100 to 10000 nM; in assay [2], < 100 nM; in assay [3], < 100 nM; in assay [4] it was < 100 nM.
With `O=c1c(-c2ccc(OC(F)F)cc2)c2nc(NC3CCC3)ncc2cn1-c1ccc2ncccc2c1` [Example 183, 2-(cyclobutylamino)-8-(4-(difluoromethoxy)phenyl)-6-(quinolin-6-yl)pyrido[4,3-d]pyrimidin-7(6)-one], the IC50 is > 10000 nM in assay [1], < 100 nM in assay [2], 100 to 1000 nM in assay [3] and 100 to 10000 nM in assay [4].
